Measurements reported in patent publication US4988678A, “Combinations of FU and BVU as anti-adenocarcinoma agents” (priority 1987, dated 1991).

Experiments:
[1] = human body, cited from earlier work
varicella zoster virus = conditions: infections caused by varicella zoster virus; cited from earlier work
[2] = tested on: herpes simplex virus type 1; conditions: infections caused by herpes simplex virus type 1; cited from earlier work
Epstein-Barr virus = conditions: infections caused by Epstein-Barr virus; cited from earlier work
replication of viruses = conditions: BVU as such; cited from earlier work
[3] = cited from earlier work
[4] = Toxicity / deaths of mice in Example 1; assay type: in vivo, male BDF1 mice
adenocarcinoma 755 = assay: Antitumor activity against subcutaneous adenocarcinoma 755 in BDF1 mice, oral FU or FU + BVDU (Example 1); conditions: for T/C (percent tumor weight with regard to control) / tumor weight, Mean ± SD: p.o. daily, 5 days, day 12
Method: Groups of 6 male BDF1 -mice having a body weight of 21 to 23 g, were subcutaneously inoculated on day 0 with tumor cells of the type adenocarcinoma 755 at a dose of 5=10^5 cells per mouse. Thereupon, the compound FU (or a combination of FU and BVDU) was perorally administered in a predetermined daily dose during 5 consecutive days, starting 24 hours after the inoculation with tumor cells. On day 12, the tumor weight was determined and compared with the tumor weight in a non-treated control group.

[5] = FU 30 mg/kg, p.o. daily, 5 days

## O=c1[nH]c(=O)n([C@H]2C[C@H](O)[C@@H](CO)O2)cc1/C=C/Br [BVDU, (E)-5-(2-bromovinyl)-2'-deoxyuridine]
[1]
  conversion to BVU: rapidly converted
Varicella zoster virus
  antiviral activity: active
[2]
  antiviral activity: active
Epstein-Barr virus
  antiviral activity: active

## O=c1[nH]cc(/C=C/Br)c(=O)[nH]1 [BVU, 5-(2-bromovinyl)uracil]
[1]; after conversion from BVDU
  presence in the blood stream: remains present in the blood stream for a relatively long period
Replication of viruses
  activity against replication of viruses: inactive

## O=c1[nH]cc(F)c(=O)[nH]1 [FU, 5-fluorouracil]
[3]
  degradation in the liver: degraded rather rapidly
[4]; [5]
  died (animals of group): 3/6
  toxicity (in words): Toxic
[4]; mouse, in vivo, po, FU used alone, from the Table (doses in mg/kg), read-out: LD50 (50% lethal dose)
  LD50: 30 mg/kg
Adenocarcinoma 755; FU 5 mg/kg
  T/C (percent tumor weight with regard to control): 122%
  tumor weight, Mean ± SD: 2523 ± 389 mg
Adenocarcinoma 755; FU 10 mg/kg
  T/C (percent tumor weight with regard to control): 85%
  tumor weight, Mean ± SD: 1759 ± 726 mg
Adenocarcinoma 755; FU 20 mg/kg
  T/C (percent tumor weight with regard to control): 32%
  tumor weight, Mean ± SD: 675 ± 355 mg
Adenocarcinoma 755; FU used alone
  therapeutic index (ratio of LD50 to ED50): 2
Adenocarcinoma 755; Mus musculus, po, 288 h, read-out: ED50 (dose causing a 50% reduction of T/C)
  ED50: 15 mg/kg

## O=c1[nH]c(=O)n(C2CCCO2)cc1F (stereo not shown) [FT, N1-(2'-tetrahydrofuryl)-5-fluorouracil]
[1]
  conversion to FU: converted slowly to FU
